Results published in PubChem BioAssay (NCI).
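Five concentrations, 48 hours, 96-well plates. GI50 marks 50% less growth. At the TGI there is no net growth.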

How the values were obtained:
Test in all cases: growth of human tumour cells (NCI), 48 h
[1] = test system: RXF 393 renal
[2] = test system: BT-549 breast
[3] = test system: HT29 colon
[4] = test system: SK-MEL-2 melanoma
[5] = test system: LOX IMVI melanoma
[6] = test system: NCI-H522 lung
[7] = test system: OVCAR-5 ovarian
[8] = test system: COLO 205 colon
[9] = test system: SK-MEL-5 melanoma
[10] = test system: 786-0 renal
[11] = test system: TK-10 renal
[12] = test system: SN12C renal
[13] = test system: OVCAR-8 ovarian
[14] = test system: CAKI-1 renal
[15] = test system: KM12 colon
[16] = test system: UACC-62 melanoma
[17] = test system: HL-60(TB) leukemia
[18] = test system: K-562 leukemia
[19] = test system: MALME-3M melanoma
[20] = test system: U251 CNS
[21] = test system: A549 NSCLC
[22] = test system: PC-3 prostate
[23] = test system: ACHN renal
[24] = test system: MCF7 breast
[25] = test system: UACC-257 melanoma
[26] = test system: DU-145 prostate
[27] = test system: SF-539 CNS
[28] = test system: NCI-H226 lung
[29] = test system: HOP-92 NSCLC
[30] = test system: RPMI-8226 leukemia
[31] = test system: MDA-MB-231 breast
[32] = test system: MDA-MB-435
[33] = test system: T-47D breast
[34] = test system: NCI/ADR-RES ovarian
[35] = test system: UO-31 renal
[36] = test system: SK-MEL-28 melanoma
[37] = test system: SF-295 CNS
[38] = test system: EKVX NSCLC
[39] = test system: SK-OV-3 ovarian
[40] = test system: NCI-H460 lung
[41] = test system: A498 renal
[42] = test system: HCC-2998 colon
[43] = test system: SNB-19 CNS
[44] = test system: HOP-62 NSCLC
[45] = test system: SF-268 CNS
[46] = test system: OVCAR-4 ovarian
[47] = test system: HCT-116 colon
[48] = test system: OVCAR-3 ovarian
[49] = test system: SW-620 colon
[50] = test system: NCI-H23 lung
[51] = test system: SNB-75 CNS
[52] = test system: HCT-15 colon
[53] = test system: HS 578T breast

Structure (SMILES): COC(=O)c1cc([N+](=O)[O-])cc([N+](=O)[O-])c1Cl
- GI50 [1]: 1.72 µM
- TGI [1]: 3.12 µM
- GI50 [2]: 10.7 µM
- TGI [2]: 22.6 µM
- GI50 [3]: 1.88 µM
- TGI [3]: 3.49 µM
- GI50 [4]: 3.52 µM
- TGI [4]: 12.6 µM
- GI50 [5]: 1.75 µM
- TGI [5]: 3.36 µM
- GI50 [6]: 1.82 µM
- TGI [6]: 3.31 µM
- GI50 [7]: 2.7 µM
- TGI [7]: 10.2 µM
- GI50 [8]: 1.65 µM
- TGI [8]: 3.1 µM
- GI50 [9]: 3.03 µM
- TGI [9]: 10.9 µM
- GI50 [10]: 1.79 µM
- TGI [10]: 3.22 µM
- GI50 [11]: 2.48 µM
- TGI [11]: 6.48 µM
- GI50 [12]: 3.15 µM
- TGI [12]: 11 µM
- GI50 [13]: 2.01 µM
- TGI [13]: 4.38 µM
- GI50 [14]: 1.73 µM
- TGI [14]: 3.28 µM
- GI50 [15]: 11.3 µM
- TGI [15]: 23.6 µM
- GI50 [16]: 1.55 µM
- TGI [16]: 3.1 µM
- GI50 [17]: 3.98 µM
- TGI [17]: 27.5 µM
- GI50 [18]: 2.24 µM
- TGI [18]: > 100 µM
- GI50 [19]: 1.95 µM
- TGI [19]: 4.1 µM
- GI50 [20]: 2.14 µM
- TGI [20]: 4.78 µM
- GI50 [21]: 20.4 µM
- TGI [21]: 46.8 µM
- GI50 [22]: 1.88 µM
- TGI [22]: 3.91 µM
- GI50 [23]: 1.76 µM
- TGI [23]: 3.21 µM
- GI50 [24]: 1.94 µM
- TGI [24]: 4.6 µM
- GI50 [25]: 1.58 µM
- TGI [25]: 2.98 µM
- GI50 [26]: 2.3 µM
- TGI [26]: 6.6 µM
- GI50 [27]: 1.98 µM
- TGI [27]: 4.22 µM
- GI50 [28]: 3.58 µM
- TGI [28]: 13.9 µM
- GI50 [29]: 1.64 µM
- TGI [29]: 3.04 µM
- GI50 [30]: 2.4 µM
- TGI [30]: 5.66 µM
- GI50 [31]: 2.34 µM
- TGI [31]: 5.79 µM
- GI50 [32]: 1.89 µM
- TGI [32]: 3.64 µM
- GI50 [33]: 1.71 µM
- TGI [33]: 4.21 µM
- GI50 [34]: 2.8 µM
- TGI [34]: 8.71 µM
- GI50 [35]: 1.86 µM
- TGI [35]: 3.95 µM
- GI50 [36]: 1.94 µM
- TGI [36]: 4.08 µM
- GI50 [37]: 19.3 µM
- TGI [37]: 36.9 µM
- GI50 [38]: 14.1 µM
- TGI [38]: 28.8 µM
- GI50 [39]: 17.5 µM
- TGI [39]: 31.3 µM
- GI50 [40]: 13.1 µM
- TGI [40]: 39 µM
- GI50 [41]: 17 µM
- TGI [41]: 30.7 µM
- GI50 [42]: 14.4 µM
- TGI [42]: 28.3 µM
- GI50 [43]: 17.4 µM
- TGI [43]: 34.5 µM
- GI50 [44]: 2.65 µM
- TGI [44]: 8.09 µM
- GI50 [45]: 12.7 µM
- TGI [45]: 25.4 µM
- GI50 [46]: 1.76 µM
- TGI [46]: 3.17 µM
- GI50 [47]: 1.06 µM
- TGI [47]: 2.63 µM
- GI50 [48]: 1.78 µM
- TGI [48]: 3.2 µM
- GI50 [49]: 1.87 µM
- TGI [49]: 3.52 µM
- GI50 [50]: 19.3 µM
- TGI [50]: 69.6 µM
- GI50 [51]: 1.93 µM
- TGI [51]: 5.07 µM
- GI50 [52]: 2.19 µM
- TGI [52]: 5.44 µM
- GI50 [53]: 2.28 µM
- TGI [53]: 5.86 µM
